Measurements: the kinase profiling compilation of Christmann-Franck et al. (2016)

Assays:
Assay in all cases: KINOMEscan competition binding
Details in all cases: compound 1.0 µM
[1] = target: CDK19 (human) (UniProt Q9BWU1)
[2] = target: PRKD3 (human) (UniProt O94806)
[3] = target: HIPK4 (human) (UniProt Q8NE63)
[4] = target: TNIK (human) (UniProt Q9UKE5)
[5] = target: YES1 (human) (UniProt P07947)
[6] = target: FGFR4 (human) (UniProt P22455)
[7] = target: NEK2 (human) (UniProt P51955)
[8] = tested on: EGFR (human), P00533 [G719S]
[9] = tested on: EGFR (human), P00533 [A750P; 747-749 del]
[10] = target: TAOK1 (human) (UniProt Q7L7X3)
[11] = target: JAK2 JH1 catalytic (human) (UniProt O60674)
Chain of JAK2 JH1 catalytic (human) (O60674 whole entry, looked up): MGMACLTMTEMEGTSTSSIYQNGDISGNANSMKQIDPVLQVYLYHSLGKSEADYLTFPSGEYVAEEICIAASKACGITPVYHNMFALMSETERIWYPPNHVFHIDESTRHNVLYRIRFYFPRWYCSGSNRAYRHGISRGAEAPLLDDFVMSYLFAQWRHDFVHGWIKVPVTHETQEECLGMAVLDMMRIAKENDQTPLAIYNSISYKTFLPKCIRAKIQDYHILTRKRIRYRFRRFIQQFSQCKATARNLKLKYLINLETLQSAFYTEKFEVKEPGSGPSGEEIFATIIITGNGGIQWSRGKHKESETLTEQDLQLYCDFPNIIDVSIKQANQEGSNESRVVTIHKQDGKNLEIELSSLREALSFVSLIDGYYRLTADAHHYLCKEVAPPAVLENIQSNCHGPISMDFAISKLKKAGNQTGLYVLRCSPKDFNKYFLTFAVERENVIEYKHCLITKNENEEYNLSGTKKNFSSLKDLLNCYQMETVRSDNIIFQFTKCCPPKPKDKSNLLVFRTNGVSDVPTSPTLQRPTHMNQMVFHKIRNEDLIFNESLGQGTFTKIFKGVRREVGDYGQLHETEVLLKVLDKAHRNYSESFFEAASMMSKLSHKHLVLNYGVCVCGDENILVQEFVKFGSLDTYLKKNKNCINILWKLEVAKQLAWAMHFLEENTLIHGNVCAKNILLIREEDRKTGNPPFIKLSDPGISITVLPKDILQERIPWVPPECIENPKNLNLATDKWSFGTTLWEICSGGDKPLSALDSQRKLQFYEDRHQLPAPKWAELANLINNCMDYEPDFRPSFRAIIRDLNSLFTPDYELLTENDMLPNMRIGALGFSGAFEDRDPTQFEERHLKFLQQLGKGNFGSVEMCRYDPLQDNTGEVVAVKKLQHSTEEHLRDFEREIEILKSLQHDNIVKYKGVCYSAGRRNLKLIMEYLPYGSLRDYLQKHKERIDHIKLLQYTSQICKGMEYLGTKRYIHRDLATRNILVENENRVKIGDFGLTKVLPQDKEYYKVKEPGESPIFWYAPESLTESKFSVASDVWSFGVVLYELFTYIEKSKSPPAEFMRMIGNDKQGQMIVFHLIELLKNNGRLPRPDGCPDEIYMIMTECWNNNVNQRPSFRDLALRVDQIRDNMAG

[12] = target: SIK2 (human) (UniProt Q9H0K1)
[13] = target: EIF2AK2 (human) (UniProt P19525)
[14] = target: ACVR1 (human) (UniProt Q04771)
[15] = target: PAK1 (human) (UniProt Q13153)
[16] = target: TXK (human) (UniProt P42681)
[17] = target: PRPF4B (human) (UniProt Q13523)
[18] = target: BLK (human) (UniProt P51451)
Chain of BLK (human) (P51451 whole entry, looked up): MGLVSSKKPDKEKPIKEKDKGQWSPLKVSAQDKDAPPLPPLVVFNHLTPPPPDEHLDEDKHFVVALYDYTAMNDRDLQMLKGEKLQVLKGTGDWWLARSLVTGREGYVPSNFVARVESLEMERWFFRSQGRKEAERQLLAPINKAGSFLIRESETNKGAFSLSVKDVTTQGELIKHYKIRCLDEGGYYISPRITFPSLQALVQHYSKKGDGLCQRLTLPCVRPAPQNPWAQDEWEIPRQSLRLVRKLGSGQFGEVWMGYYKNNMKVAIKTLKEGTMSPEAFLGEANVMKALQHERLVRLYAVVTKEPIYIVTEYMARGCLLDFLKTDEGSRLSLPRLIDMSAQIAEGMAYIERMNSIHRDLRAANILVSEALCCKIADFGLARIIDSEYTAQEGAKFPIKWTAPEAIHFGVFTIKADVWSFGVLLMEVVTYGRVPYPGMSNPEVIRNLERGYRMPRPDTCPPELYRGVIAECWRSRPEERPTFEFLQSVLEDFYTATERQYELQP

[19] = tested on: PIK3CA (human), P42336 [E545A]
[20] = target: DMPK (human) (UniProt Q09013)
[21] = target: PTK2B (human) (UniProt Q14289)
[22] = target: TNK2 (human) (UniProt Q07912)
[23] = target: DCLK1 (human) (UniProt O15075)
[24] = target: MAP2K5 (human) (UniProt Q13163)
[25] = target: RIOK1 (human) (UniProt Q9BRS2)
[26] = target: CAMK2D (human) (UniProt Q13557)
[27] = target: MAP4K5 (human) (UniProt Q9Y4K4)
[28] = target: AURKA (human) (UniProt O14965)
Chain of AURKA (human) (O14965 whole entry, looked up): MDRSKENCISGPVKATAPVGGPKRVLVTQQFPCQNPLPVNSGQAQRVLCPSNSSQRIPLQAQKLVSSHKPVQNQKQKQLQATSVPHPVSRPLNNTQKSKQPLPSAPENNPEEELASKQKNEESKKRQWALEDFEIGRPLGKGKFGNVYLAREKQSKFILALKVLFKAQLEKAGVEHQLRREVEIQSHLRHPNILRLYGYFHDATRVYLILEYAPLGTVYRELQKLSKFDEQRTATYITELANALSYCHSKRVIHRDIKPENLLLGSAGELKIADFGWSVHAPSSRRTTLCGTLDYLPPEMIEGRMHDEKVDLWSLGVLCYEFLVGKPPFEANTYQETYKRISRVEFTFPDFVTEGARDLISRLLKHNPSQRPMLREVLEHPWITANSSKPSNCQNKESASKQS

[29] = tested on: FLT3 (human), P36888 [R834Q]
[30] = target: MAPK4 (human) (UniProt P31152)
[31] = target: PLK3 (human) (UniProt Q9H4B4)
[32] = target: TRPM6 (human) (UniProt Q9BX84)
[33] = tested on: KIT (human), P10721 [V559D/V654A]
[34] = target: MAP2K6 (human) (UniProt P52564)
[35] = target: FGFR1 (human) (UniProt P11362)
[36] = target: MAP3K15 (human) (UniProt Q6ZN16)
[37] = target: MYO3A (human) (UniProt Q8NEV4)
[38] = target: IKBKB (human) (UniProt O14920)
Chain of IKBKB (human) (O14920 whole entry, looked up): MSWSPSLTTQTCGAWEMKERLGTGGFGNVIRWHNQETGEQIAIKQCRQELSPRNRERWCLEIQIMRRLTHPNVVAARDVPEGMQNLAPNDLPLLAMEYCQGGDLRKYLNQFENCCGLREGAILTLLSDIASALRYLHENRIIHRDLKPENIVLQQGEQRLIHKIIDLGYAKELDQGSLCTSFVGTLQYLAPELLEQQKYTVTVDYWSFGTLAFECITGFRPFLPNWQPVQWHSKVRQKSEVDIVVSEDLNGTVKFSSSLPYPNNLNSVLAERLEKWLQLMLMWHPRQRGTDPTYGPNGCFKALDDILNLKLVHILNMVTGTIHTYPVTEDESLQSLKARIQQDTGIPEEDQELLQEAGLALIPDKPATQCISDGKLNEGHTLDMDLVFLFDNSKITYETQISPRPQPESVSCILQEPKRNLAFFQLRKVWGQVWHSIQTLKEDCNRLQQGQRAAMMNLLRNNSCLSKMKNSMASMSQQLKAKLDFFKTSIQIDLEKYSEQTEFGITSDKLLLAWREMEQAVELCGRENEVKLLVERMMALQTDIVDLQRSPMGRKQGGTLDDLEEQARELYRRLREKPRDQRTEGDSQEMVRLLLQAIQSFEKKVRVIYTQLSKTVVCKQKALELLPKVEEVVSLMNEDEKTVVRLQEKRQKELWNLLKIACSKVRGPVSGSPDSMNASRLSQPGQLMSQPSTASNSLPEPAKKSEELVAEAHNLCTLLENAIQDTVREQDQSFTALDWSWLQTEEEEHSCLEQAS

[39] = target: MAK (human) (UniProt P20794)
Chain of MAK (human) (P20794 whole entry, looked up): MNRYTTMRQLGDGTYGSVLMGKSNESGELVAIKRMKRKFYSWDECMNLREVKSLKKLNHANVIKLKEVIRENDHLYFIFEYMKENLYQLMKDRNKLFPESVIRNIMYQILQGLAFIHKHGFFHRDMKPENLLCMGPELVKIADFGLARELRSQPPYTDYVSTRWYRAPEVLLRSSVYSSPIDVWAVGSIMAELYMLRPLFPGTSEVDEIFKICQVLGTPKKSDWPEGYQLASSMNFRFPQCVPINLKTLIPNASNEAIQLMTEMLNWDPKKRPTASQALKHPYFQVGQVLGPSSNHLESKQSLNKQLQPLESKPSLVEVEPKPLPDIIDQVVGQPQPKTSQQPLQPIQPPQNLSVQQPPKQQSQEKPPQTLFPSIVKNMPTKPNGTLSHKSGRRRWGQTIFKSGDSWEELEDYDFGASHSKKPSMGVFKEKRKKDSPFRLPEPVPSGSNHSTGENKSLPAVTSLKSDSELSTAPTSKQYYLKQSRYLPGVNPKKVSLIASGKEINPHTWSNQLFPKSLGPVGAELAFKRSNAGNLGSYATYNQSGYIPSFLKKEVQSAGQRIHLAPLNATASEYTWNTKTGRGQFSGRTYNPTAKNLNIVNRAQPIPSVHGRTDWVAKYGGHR

[40] = target: EPHB1 (human) (UniProt P54762)
[41] = target: MAP4K4 (human) (UniProt O95819)
[42] = tested on: KIT (human), P10721 [A829P]

Chain of CDK19 (human) (Q9BWU1 whole entry, looked up): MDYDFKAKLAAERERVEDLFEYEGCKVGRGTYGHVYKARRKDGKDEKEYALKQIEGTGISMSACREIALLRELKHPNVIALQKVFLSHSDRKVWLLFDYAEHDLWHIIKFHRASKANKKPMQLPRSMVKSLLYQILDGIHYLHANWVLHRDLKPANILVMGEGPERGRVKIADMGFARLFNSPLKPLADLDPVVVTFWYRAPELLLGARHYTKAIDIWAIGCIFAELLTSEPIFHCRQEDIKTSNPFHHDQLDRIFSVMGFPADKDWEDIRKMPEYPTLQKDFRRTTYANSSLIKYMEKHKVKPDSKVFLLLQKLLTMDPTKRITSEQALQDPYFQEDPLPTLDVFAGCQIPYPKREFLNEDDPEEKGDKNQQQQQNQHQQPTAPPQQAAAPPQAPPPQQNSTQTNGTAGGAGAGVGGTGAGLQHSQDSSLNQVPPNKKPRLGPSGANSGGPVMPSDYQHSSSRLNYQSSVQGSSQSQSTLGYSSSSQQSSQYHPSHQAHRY
Chain of PRKD3 (human) (O94806 whole entry, looked up): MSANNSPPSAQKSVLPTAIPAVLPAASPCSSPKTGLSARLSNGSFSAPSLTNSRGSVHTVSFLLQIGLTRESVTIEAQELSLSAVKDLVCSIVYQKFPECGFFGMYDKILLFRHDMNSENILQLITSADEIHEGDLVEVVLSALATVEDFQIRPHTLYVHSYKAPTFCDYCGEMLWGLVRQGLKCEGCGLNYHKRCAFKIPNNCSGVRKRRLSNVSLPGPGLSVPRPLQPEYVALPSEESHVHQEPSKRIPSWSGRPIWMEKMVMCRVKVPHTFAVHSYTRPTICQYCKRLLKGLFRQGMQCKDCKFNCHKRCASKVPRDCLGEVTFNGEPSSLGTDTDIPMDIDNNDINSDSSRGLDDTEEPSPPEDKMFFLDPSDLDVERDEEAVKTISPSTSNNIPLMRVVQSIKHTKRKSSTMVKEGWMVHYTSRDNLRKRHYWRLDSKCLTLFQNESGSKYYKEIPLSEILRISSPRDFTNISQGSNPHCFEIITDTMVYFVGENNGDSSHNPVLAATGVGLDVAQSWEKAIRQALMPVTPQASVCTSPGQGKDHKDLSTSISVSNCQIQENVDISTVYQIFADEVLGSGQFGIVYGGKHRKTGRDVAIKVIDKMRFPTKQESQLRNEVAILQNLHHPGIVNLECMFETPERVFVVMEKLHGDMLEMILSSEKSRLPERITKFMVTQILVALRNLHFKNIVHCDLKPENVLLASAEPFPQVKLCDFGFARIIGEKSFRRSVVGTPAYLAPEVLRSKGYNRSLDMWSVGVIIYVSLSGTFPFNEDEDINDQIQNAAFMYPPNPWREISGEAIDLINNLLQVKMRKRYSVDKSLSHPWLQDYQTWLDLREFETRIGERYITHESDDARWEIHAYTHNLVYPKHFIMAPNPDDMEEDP

Q: What does the source list for `CN(C)C/C=C/C(=O)Nc1cccc(C(=O)Nc2ccc(Nc3nccc(/C(C#N)=C4\Nc5ccccc5S4)n3)cc2)c1`?
A: kinase still bound, per cent of control [1]: 93%; kinase still bound, per cent of control [2]: 100%; kinase still bound, per cent of control [3]: 6%; kinase still bound, per cent of control [4]: 100%; kinase still bound, per cent of control [5]: 100%; kinase still bound, per cent of control [6]: 100%; kinase still bound, per cent of control [7]: 99%; kinase still bound, per cent of control [8]: 100%; kinase still bound, per cent of control [9]: 94%; kinase still bound, per cent of control [10]: 74%; kinase still bound, per cent of control [11]: 100%; kinase still bound, per cent of control [12]: 100%; kinase still bound, per cent of control [13]: 100%; kinase still bound, per cent of control [14]: 100%; kinase still bound, per cent of control [15]: 100%; kinase still bound, per cent of control [16]: 100%; kinase still bound, per cent of control [17]: 100%; kinase still bound, per cent of control [18]: 100%; kinase still bound, per cent of control [19]: 100%; kinase still bound, per cent of control [20]: 78%; kinase still bound, per cent of control [21]: 100%; kinase still bound, per cent of control [22]: 70%; kinase still bound, per cent of control [23]: 100%; kinase still bound, per cent of control [24]: 100%; kinase still bound, per cent of control [25]: 14%; kinase still bound, per cent of control [26]: 100%; kinase still bound, per cent of control [27]: 100%; kinase still bound, per cent of control [28]: 100%; kinase still bound, per cent of control [29]: 100%; kinase still bound, per cent of control [30]: 100%; kinase still bound, per cent of control [31]: 59%; kinase still bound, per cent of control [32]: 100%; kinase still bound, per cent of control [33]: 100%; kinase still bound, per cent of control [34]: 100%; kinase still bound, per cent of control [35]: 100%; kinase still bound, per cent of control [36]: 100%; kinase still bound, per cent of control [37]: 100%; kinase still bound, per cent of control [38]: 87%; kinase still bound, per cent of control [39]: 93%; kinase still bound, per cent of control [40]: 100%; kinase still bound, per cent of control [41]: 100%; kinase still bound, per cent of control [42]: 100%
